This note sets out measurements from US20160166604A1, “Thiol-Sensitive Positive Inotropes” (priority 2005, published 2016).

Values joined by “and” are separate entries in the source; they are usually repeats but may differ in a detail not shown here. Equal values may be shown once.

The test system of one assay is cardiomyocytes. The assay can be described thus: Intracellular thiol quantitation (glutathione S-bimane fluorescence, two-photon microscopy). The format is cell-based, mouse. To be noted: GSH (ethyl ester) 4 mM for 3 hrs, n=40. An excerpt:
The cationic potentiometric fluorescent dye tetramethylrhodamine methyl ester (TMRM) was used to monitor changes in ΔΨm as previously described. Cortassa, S. et al., Biophys. J., 87, 2060-2073 (2004). The production of the fluorescent glutathione adduct GSB from the reaction of cell permeant monochlorobimane (MCB) with reduced glutathione (GSH), catalyzed by glutathione S-transferase, was used to measure intracellular glutathione levels, as described. Cortassa, S. et al., Biophys. J., 87, 2060-2073 (2004). Experimental recordings started after exposing the cardiomyocytes to an experimental Tyrode's solution. […] Images were recorded using a two photon laser scanning microscope (Bio-Rad MRC-1024MP) with excitation at 740 nm (Tsunami Ti:Sa laser, Spectra-Physics). The red emission of […] was collected at 605±25 nm and the blue fluorescence of GSB was collected at its maximal emission (480 nm). Images were analyzed offline using ItnageJ software (Wayne Rasband, National Institutes of Health, http://rsb.info.nih.gov/ij/). […]
HNO targets thiol groups on selective proteins. […] Pre-treatment with GSH enhanced intracellular thiol equivalents (+6±1.5% in fluorescence a.u. vs., controls, n=40, p<0.05), as determined by fluorescence assay of glutathione S-bimane production using two-photon microscopy. […]

The test system of a further assay is cAMP. The experiment in a line: cAMP FRET imaging in neonatal rat cardiomyocytes. To be noted: applied after AS. The format is cell-based. As for the experimental part:
Primary cultures of cardiac ventricular myocytes from 1-3 days old Sprague Dawley rats (Charles River Laboratories, Wilmington, Mass.) were prepared as described. Dostal, D. E. et al., Am. J. Physiol., 263, […]-[…] (1992). Cells were transfected with a FRET-based sensor for cAMP (Zaccolo, M. et al., Science, 295, 1711-1715 (2002)) and imaged 48 hrs after transfection. During the experiments, cells were continuously perfused with HEPES buffered Ringer's modified saline (1 mmol/LCaCl2) at room temperature. Cells were imaged on an inverted Olympus IX50 microscope upon excitation at 430 nm. Mongillo, M. et al., Circ. Res., 98, 226-234 (2006). Image analysis was performed by using ImageJ (Rasband, W. S., ImageJ, National Institutes of Health, Bethesda, Md., USA). At each time point, FRET values were measured as the 480 nm/535 nm emission ratio intensity (R) and were normalized to the 480 nm/535 nm value at time 0s (R0). Agents that increase peak Ca^2+ transients coupled to increased sarcomere shortening often do so via a rise in intracellular cAMP and subsequent activation of protein kinase A ([…]. et al., Curr. Med. Chem., 10, 967-981 (2003). To test whether this applied to AS, real-time imaging of cAMP on transfected neonatal rat cardiomyocytes was performed with a cAMP FRET-probe. Zaccolo, M. et al., Science, 295, 1711-1715 (2002). Upon exposure to 1 mM AS, the FRET signal was unchanged (0.3%±0.1%, n=23, p=NS), whereas subsequent application of norepinephrine (10 μM) or phosphodiesterase inhibitor IBMX (100 μM) both increased it by 12% (p<10^-6) (FIG. 2A). Pre-treatment of adult mouse myocytes with the PKA inhibitor […]

In the case of `CCOC(=O)CNC(=O)[C@H](CS)NC(=O)CC[C@H](N)C(=O)O` [GSH, GSH ethyl ester], the “increase of intracellular thiol equivalents (fluorescence a.u. vs. controls)” value with cardiomyocytes is 6% and 6±1.5%. As for `CC(C)Cn1c(=O)n(C)c(=O)c2[nH]cnc21` [IBMX], the “increase of cAMP FRET signal” value with cAMP (IBMX 100 μM) came to 12%. Take `NC[C@H](O)c1ccc(O)c(O)c1` [norepinephrine]: the “increase of cAMP FRET signal” value with cAMP (norepinephrine 10 μM) stood at 12%.
